The test concerns the target HLA A*3001 (Homo sapiens, UniProt P04439, D140H/D185E/E176W/F33S/G80R/H175R/K168Q/R138E/R41S). The test is described as follows: biochemical. It counts as binding.

Where a SMILES comes first, the peptide text is derived from it.

Chain of HLA A*3001 (P04439 25-365 limits assumed, stated change not applied): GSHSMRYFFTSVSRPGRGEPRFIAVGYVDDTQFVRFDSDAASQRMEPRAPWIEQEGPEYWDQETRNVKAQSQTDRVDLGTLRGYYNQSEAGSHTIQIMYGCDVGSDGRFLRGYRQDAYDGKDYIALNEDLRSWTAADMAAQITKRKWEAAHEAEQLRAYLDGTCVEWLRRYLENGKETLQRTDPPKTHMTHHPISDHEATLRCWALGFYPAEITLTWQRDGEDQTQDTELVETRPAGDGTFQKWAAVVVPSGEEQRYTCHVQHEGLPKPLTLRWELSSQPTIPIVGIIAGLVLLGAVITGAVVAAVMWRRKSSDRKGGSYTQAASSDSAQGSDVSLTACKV

As to `CC[C@H](C)[C@H](NC(=O)[C@H](CC(N)=O)NC(=O)[C@@H]1CCCN1C(=O)[C@H](CCCNC(=N)N)NC(=O)[C@H](Cc1ccc(O)cc1)NC(=O)[C@@H](N)CC(C)C)C(=O)N1CCC[C@H]1C(=O)N[C@@H](CC(C)C)C(=O)N[C@@H](CCCCN)C(=O)O` [3102.0026] (H-LYRPNIPLK-OH), the IC50 (commonly the concentration that gives 50% inhibition) amounted to 3.5 nM.
On to `CC[C@H](C)[C@H](NC(=O)[C@H](CCSC)NC(=O)[C@H](Cc1ccccc1)NC(=O)[C@H](CC(=O)O)NC(=O)[C@H](CC(N)=O)NC(=O)[C@H](CCCCN)NC(=O)[C@@H](NC(=O)[C@@H](N)Cc1c[nH]cn1)[C@@H](C)CC)C(=O)N[C@@H](CCCCN)C(=O)O` [3102.0101] (H-HIKNDFMIK-OH), for which half-maximal inhibition (IC50) required 1.6 nM.
Turning to `CC(C)C[C@H](NC(=O)[C@H](CO)NC(=O)[C@@H]1CCCN1C(=O)[C@@H]1CCCN1C(=O)[C@H](CO)NC(=O)[C@@H](NC(=O)[C@@H](N)CCCCN)C(C)C)C(=O)NCC(=O)N[C@@H](CCCCN)C(=O)O` [3102.0017] (H-KVSPPSLGK-OH), the midpoint of inhibition, the IC50, lay at 1.1 nM.
For `CC(C)C[C@H](NC(=O)[C@H](CC(C)C)NC(=O)[C@H](CCCNC(=N)N)NC(=O)[C@@H](NC(=O)[C@@H](N)CO)C(C)C)C(=O)N[C@@H](CC(N)=O)C(=O)N[C@@H](Cc1ccc(O)cc1)C(=O)N[C@@H](Cc1ccccc1)C(=O)N[C@@H](CCCCN)C(=O)O` [3102.0158] (H-SVRLLNYFK-OH), half-maximal inhibition (IC50) required 0.24 nM.
`CC[C@H](C)[C@H](NC(=O)[C@H](CC(C)C)NC(=O)[C@H](CO)NC(=O)CNC(=O)[C@@H]1CCCN1C(=O)[C@H](CCCNC(=N)N)NC(=O)[C@H](Cc1ccccc1)NC(=O)[C@@H](N)CCCCN)C(=O)N[C@@H](Cc1ccc(O)cc1)C(=O)O` [3102.0230] (H-KFRPGSLIY-OH) came in with an IC50 of 0.3 nM.
In the case of `CSCC[C@H](NC(=O)[C@H](CCSC)NC(=O)[C@@H]1CCCN1C(=O)[C@@H](NC(=O)[C@@H](NC(=O)[C@H](CC(N)=O)NC(=O)[C@H](CCCNC(=N)N)NC(=O)[C@H](CO)NC(=O)[C@@H](N)CCCCN)[C@@H](C)O)[C@@H](C)O)C(=O)O` [3102.0277] (H-KSRNTTPMM-OH) it was 0.1 nM; in that of `CC[C@H](C)[C@H](NC(=O)[C@H](C)NC(=O)[C@@H](N)CCCCN)C(=O)N[C@@H](CO)C(=O)N[C@@H](CC(N)=O)C(=O)N[C@@H](C)C(=O)N[C@@H](CCCNC(=N)N)C(=O)N[C@@H](CC(C)C)C(=O)N[C@@H](CCCCN)C(=O)O` [3102.0204] (H-KAISNARLK-OH), 26 nM; in that of `CC(C)[C@H](NC(=O)[C@H](CCCCN)NC(=O)[C@H](Cc1ccccc1)NC(=O)[C@@H](NC(=O)[C@H](CC(=O)O)NC(=O)[C@H](Cc1ccc(O)cc1)NC(=O)[C@H](CCCNC(=N)N)NC(=O)[C@@H](NC(=O)[C@@H](N)CCCNC(=N)N)[C@@H](C)O)[C@@H](C)O)C(=O)O` [3102.0144] (H-RTRYDTFKV-OH), 0.2 nM.
`CC(C)C[C@H](NC(=O)[C@H](CC(=O)O)NC(=O)[C@H](CCCCN)NC(=O)[C@@H](NC(=O)[C@@H](N)CCCCN)C(C)C)C(=O)N[C@@H](Cc1ccccc1)C(=O)N[C@@H](CC(N)=O)C(=O)N[C@H](C(=O)N[C@@H](CCCCN)C(=O)O)[C@@H](C)O` [3102.0238] (H-KVKDLFNTK-OH) returned an IC50 of 38 nM.
In turn, `CSCC[C@H](NC(=O)[C@H](Cc1ccc(O)cc1)NC(=O)[C@H](CC(N)=O)NC(=O)[C@H](Cc1ccc(O)cc1)NC(=O)[C@H](CO)NC(=O)[C@H](CCCCN)NC(=O)[C@@H](NC(=O)[C@@H](N)CCCCN)C(C)C)C(=O)N[C@@H](CC(C)C)C(=O)O` [3102.0219] (H-KVKSYNYML-OH) came in with an IC50 of 0.18 nM.
`CC[C@H](C)[C@H](NC(=O)[C@H](CCSC)NC(=O)[C@H](CCSC)NC(=O)[C@@H](NC(=O)[C@@H](N)CCCCN)[C@@H](C)O)C(=O)N[C@@H](CC(N)=O)C(=O)N1CCC[C@H]1C(=O)N[C@@H](Cc1ccccc1)C(=O)N[C@@H](CCSC)C(=O)O` [3102.0254] (H-KTMMINPFM-OH) came in with an IC50 of 0.36 nM.
Turning to `CC[C@H](C)[C@H](NC(=O)[C@H](CO)NC(=O)[C@@H](NC(=O)[C@@H](N)CCCCN)C(C)C)C(=O)N[C@@H](CC(C)C)C(=O)N[C@@H](Cc1c[nH]cn1)C(=O)N1CCC[C@H]1C(=O)N[C@H](C(=O)N[C@@H](CO)C(=O)O)[C@@H](C)CC` [3102.0159] (H-KVSILHPIS-OH), the IC50 stood at 11 nM.
`CC[C@H](C)[C@H](N)C(=O)N[C@H](C(=O)N[C@@H](CCCCN)C(=O)N[C@@H](CO)C(=O)N[C@@H](CO)C(=O)N[C@@H](Cc1ccc(O)cc1)C(=O)N[C@H](C(=O)N[C@@H](Cc1ccccc1)C(=O)N[C@@H](CCCCN)C(=O)O)C(C)C)[C@@H](C)CC` [3102.0029] (H-IIKSSYVFK-OH) gave an IC50 of 11 nM.
In turn, `CC(C)[C@H](NC(=O)[C@H](CO)NC(=O)[C@H](CCCNC(=N)N)NC(=O)[C@H](CCCCN)NC(=O)[C@H](CO)NC(=O)[C@H](CC(N)=O)NC(=O)[C@H](CCCNC(=N)N)NC(=O)[C@H](CC(N)=O)NC(=O)[C@@H](N)CCCCN)C(=O)O` [3102.0025] (H-KNRNSKRSV-OH) showed an IC50 of 33 nM.
Then `CSCC[C@H](N)C(=O)NCC(=O)N[C@@H](CCCNC(=N)N)C(=O)N[C@@H](Cc1ccccc1)C(=O)NCC(=O)N[C@@H](Cc1ccc(O)cc1)C(=O)N[C@H](C(=O)N1CCC[C@H]1C(=O)N[C@@H](Cc1ccc(O)cc1)C(=O)O)C(C)C` [3102.0212] (H-MGRFGYVPY-OH), with 15 nM; and `CC(C)C[C@H](NC(=O)[C@H](CO)NC(=O)[C@H](CO)NC(=O)[C@H](CCC(=O)O)NC(=O)[C@H](CCCCN)NC(=O)[C@H](CCCCN)NC(=O)[C@H](Cc1ccccc1)NC(=O)[C@@H](N)CCCNC(=N)N)C(=O)N[C@@H](C)C(=O)O` [3102.0023] (H-RFKKESSLA-OH), with 0.31 nM; and `C[C@@H](O)[C@H](NC(=O)[C@H](CO)NC(=O)CNC(=O)[C@H](CCCNC(=N)N)NC(=O)[C@H](CC(N)=O)NC(=O)CN)C(=O)N[C@@H](CO)C(=O)N[C@@H](Cc1ccccc1)C(=O)N[C@@H](CCCCN)C(=O)O` [3102.0043] (H-GNRGSTSFK-OH), with 2 nM.
Regarding `CC[C@H](C)[C@H](NC(=O)[C@@H](NC(=O)[C@@H](N)CCCNC(=N)N)[C@@H](C)O)C(=O)N[C@@H](CS)C(=O)N[C@H](C(=O)N[C@@H](CC(C)C)C(=O)N1CCC[C@H]1C(=O)N[C@@H](Cc1ccc(O)cc1)C(=O)N[C@@H](CC(C)C)C(=O)O)[C@@H](C)O` [3102.0170] (H-RTICTLPYL-OH), half-maximal inhibition (IC50) was put at 0.74 nM.
In the case of `CC[C@H](C)[C@H](N)C(=O)N[C@H](C(=O)N[C@@H](CCCCN)C(=O)N[C@@H](CO)C(=O)N1CCC[C@H]1C(=O)N[C@@H](Cc1ccc(O)cc1)C(=O)N[C@@H](CCSC)C(=O)N[C@@H](Cc1ccccc1)C(=O)N[C@@H](C)C(=O)O)[C@@H](C)CC` [3102.0003] (H-IIKSPYMFA-OH) it was 6.4 nM; in that of `CSCC[C@H](NC(=O)[C@H](CC(N)=O)NC(=O)[C@H](CCCNC(=N)N)NC(=O)[C@@H](NC(=O)[C@@H](N)CCCNC(=N)N)[C@@H](C)O)C(=O)N[C@@H](Cc1ccccc1)C(=O)N[C@@H](CCCNC(=N)N)C(=O)N[C@@H](CCCCN)C(=O)N[C@@H](CCCCN)C(=O)O` [3102.0060] (H-RTRNMFRKK-OH), 0.089 nM; in that of `CC[C@H](C)[C@H](NC(=O)[C@@H](NC(=O)[C@H](Cc1c[nH]c2ccccc12)NC(=O)[C@H](Cc1ccccc1)NC(=O)CNC(=O)[C@H](CO)NC(=O)[C@H](CCCNC(=N)N)NC(=O)[C@H](Cc1ccc(O)cc1)NC(=O)[C@@H](N)CCCNC(=N)N)[C@@H](C)CC)C(=O)O` [3102.0085] (H-RYRSGFWII-OH), 8.7 nM.
In turn, `CC(C)[C@H](NC(=O)[C@H](C)NC(=O)[C@H](Cc1ccccc1)NC(=O)[C@H](CO)NC(=O)[C@H](CS)NC(=O)[C@H](CCCNC(=N)N)NC(=O)[C@H](Cc1ccc(O)cc1)NC(=O)[C@@H](N)CCCNC(=N)N)C(=O)N[C@@H](C)C(=O)O` [3102.0102] (H-RYRCSFAVA-OH) gave an IC50 of 0.0038 nM.
In the case of `CC(C)C[C@H](NC(=O)[C@H](CC(N)=O)NC(=O)[C@@H](NC(=O)[C@H](CC(C)C)NC(=O)[C@H](CCCNC(=N)N)NC(=O)[C@H](CCC(N)=O)NC(=O)[C@@H](N)CCCCN)[C@@H](C)O)C(=O)N[C@@H](CCC(=O)O)C(=O)N[C@@H](CCCCN)C(=O)O` [3102.0243] (H-KQRLTNLEK-OH) it was 0.95 nM; in that of `CC(C)C[C@H](NC(=O)[C@H](CO)NC(=O)[C@@H]1CCCN1C(=O)[C@H](CC(C)C)NC(=O)[C@H](Cc1ccc(O)cc1)NC(=O)[C@H](CCCNC(=N)N)NC(=O)[C@@H](NC(=O)[C@@H](N)CCCNC(=N)N)[C@@H](C)O)C(=O)N[C@H](C(=O)O)C(C)C` [3102.0167] (H-RTRYLPSLV-OH), 0.49 nM.
`CC[C@H](C)[C@H](NC(=O)[C@@H](NC(=O)[C@@H](N)CCCCN)C(C)C)C(=O)N[C@H](C(=O)N[C@@H](CCCNC(=N)N)C(=O)N[C@@H](CC(N)=O)C(=O)N[C@@H](CC(C)C)C(=O)N[C@@H](CC(N)=O)C(=O)N[C@@H](CCCCN)C(=O)O)C(C)C` [3102.0191] (H-KVIVRNLNK-OH): it took 1.4 nM to reach half-maximal inhibition (IC50).
In turn, `CC[C@H](C)[C@H](NC(=O)[C@H](Cc1c[nH]cn1)NC(=O)[C@H](Cc1ccccc1)NC(=O)[C@H](CO)NC(=O)[C@@H](NC(=O)[C@@H](N)CCCCN)[C@@H](C)O)C(=O)N[C@H](C(=O)N[C@@H](Cc1ccccc1)C(=O)N[C@@H](CC(C)C)C(=O)O)[C@@H](C)CC` [3102.0050] (H-KTSFHIIFL-OH) yielded an IC50 of 25 nM.
For `CC[C@H](C)[C@H](NC(=O)[C@H](CCCCN)NC(=O)[C@@H](NC(=O)[C@@H](N)CCCNC(=N)N)[C@@H](C)O)C(=O)N1CCC[C@H]1C(=O)N[C@@H](CC(C)C)C(=O)N[C@@H](CO)C(=O)N[C@@H](CCCCN)C(=O)N[C@H](C(=O)O)C(C)C` [3102.0039] (H-RTKIPLSKV-OH), half-maximal inhibition (IC50) was put at 4.1 nM.
In the case of `CC(C)C[C@H](N)C(=O)N[C@H](C(=O)N[C@@H](CCCCN)C(=O)N[C@@H](CO)C(=O)N[C@@H](CO)C(=O)N[C@@H](Cc1ccccc1)C(=O)N[C@H](C(=O)N[C@@H](CCCCN)C(=O)N[C@@H](CCCCN)C(=O)O)C(C)C)C(C)C` [3102.0185] (H-LVKSSFVKK-OH) it was 5.6 nM; in that of `CC[C@H](C)[C@H](NC(=O)[C@H](CCCNC(=N)N)NC(=O)[C@H](CC(N)=O)NC(=O)[C@@H](NC(=O)[C@H](CCC(=O)O)NC(=O)[C@H](CCCCN)NC(=O)[C@@H](NC(=O)[C@@H](N)CCCCN)[C@@H](C)O)[C@@H](C)O)C(=O)N[C@@H](Cc1ccc(O)cc1)C(=O)O` [3102.0056] (H-KTKETNRIY-OH), 11 nM.
